Among the data in ChEMBL document CHEMBL1132025, “Macrocyclic hexapeptide analogues of the thrombin receptor (PAR-1) activation motif SFLLRN” (Bioorg Med Chem Lett, 1999) are Aggregation, inhibition and EC50 values, retold here.

Numbered stars: 1 amine (or outer) side, 2 acyl side, 3 side chain; on linkers, the order of the positions; unused ones are H or OH. Bridge positions count the residues as written; N and C are the ends. Square brackets hold non-standard residues; d marks the D form. Peptide text beside a SMILES is read from it. Phe(3-F) = N[C@@H](Cc1cccc(F)c1)C(=O)O; Phe(4-F) = N[C@@H](Cc1ccc(F)cc1)C(=O)O; X1 = O=C(CCCN[*:2])[*:1]; GABA = NCCCC(=O)O; βAla = NCCC(=O)O

Experiment [1] is filed under the species Homo sapiens. The experiment is described as follows: (§1) Agonist activity to activate human platelet aggregation (gel-filtered platelets) at a concentration of 50 uM. The format is functional.
Experiment [2] has as its target Proteinase-activated receptor 1 (Homo sapiens) (UniProt P25116). The experiment is described as follows: In vitro antagonist activity to inhibit human platelet aggregation (gel-filtered platelets) induced by human thrombin at a concentration of 50 uM.
The species named for experiment [3] is Homo sapiens. The experiment is described as follows: Agonist activity to activate human platelet aggregation (gel-filtered platelets) at a concentration of 100 uM; Not active. The format is functional.
The species entered for experiment [4] is Homo sapiens. Described as §1. The format is functional, organism-based.

A word on the inhibition: it is the percentage by which the read-out fell short of the control. In the experiment listed under Homo sapiens [1], `CC(C)C[C@@H]1NC(=O)[C@@H](NC(=O)[C@H](Cc2ccccc2)NC(=O)CCN)CCCCNC(=O)C[C@@H](C(N)=O)NC(=O)[C@H](CCCN=C(N)N)NC1=O` (H-[βAla]FKLRD-NH2; lactam 3-6) gave an Aggregation of 7%. In experiment [2], this compound came in with an inhibition of 3%. In the experiment listed under Homo sapiens [1], `CC(C)C[C@@H]1NC(=O)[C@@H](NC(=O)[C@H](Cc2ccccc2)NC(=O)CN)CCCCNC(=O)C[C@@H](C(N)=O)NC(=O)[C@H](CCCN=C(N)N)NC1=O` (H-GFKLRD-NH2; lactam 3-6) returned an Aggregation of 15%. In experiment [2], this compound yielded an inhibition of 9%.

In the experiment listed under Homo sapiens [1], `CC(C)C[C@@H]1NC(=O)[C@@H](NC(=O)[C@@H](CCc2ccccc2)NC(=O)CCN)CCCCNC(=O)C[C@@H](C(N)=O)NC(=O)[C@H](CCCN=C(N)N)NC1=O` yielded an Aggregation of 7%. In addition, the inhibition in experiment [2] came out at 1%. What is called EC50 is the concentration that produces a half-maximal response. With `CC(C)C[C@@H]1NC(=O)[C@@H](NC(=O)[C@@H](Cc2ccccc2)NC(=O)CCN)CCCCNC(=O)C[C@@H](C(N)=O)NC(=O)[C@H](Cc2ccccc2)NC1=O`, the EC50 result in the experiment listed under Homo sapiens [3] was “Not Active”. In experiment [2], this compound came in with an inhibition of 11%. `CC(C)C[C@@H]1NC(=O)[C@@H](NC(=O)[C@@H](CCc2ccccc2)NC(=O)[C@@H](N)CO)CCCCNC(=O)C[C@@H](C(N)=O)NC(=O)[C@H](CCCN=C(N)N)NC1=O` yielded an Aggregation in the experiment filed under Homo sapiens [1] of 16%. The same compound gave an inhibition in experiment [2] of 5%. `CC(C)C[C@@H]1NC(=O)[C@@H](NC(=O)[C@H](Cc2cccc(F)c2)NC(=O)CCCN)CCCCNC(=O)C[C@@H](C(N)=O)NC(=O)[C@H](CCCN=C(N)N)NC1=O` (H-[GABA][Phe(3-F)]KLRD-NH2; lactam 3-6) yielded an Aggregation in the experiment listed under Homo sapiens [1] of 6%. Moreover, the inhibition in experiment [2] is 2%.

For `CC(C)C[C@@H]1NC(=O)[C@@H](NC(=O)[C@H](Cc2ccccc2)NC(=O)CCCN)CCCCNC(=O)C[C@@H](C(N)=O)NC(=O)[C@H](Cc2ccccc2)NC1=O` (H-[GABA]FKLFD-NH2; lactam 3-6), the EC50 result in the experiment listed under Homo sapiens [3] is “Not Active”. In addition, the inhibition in experiment [2] amounted to 14%.

Compound `CC(C)C[C@@H]1NC(=O)[C@@H](NC(=O)[C@H](Cc2cccc(F)c2)NC(=O)CCN)CCCCNC(=O)C[C@@H](C(N)=O)NC(=O)[C@H](CCCN=C(N)N)NC1=O` (H-[βAla][Phe(3-F)]KLRD-NH2; lactam 3-6) had an Aggregation in the experiment listed under Homo sapiens [1] of 7%. In experiment [2], this compound showed an inhibition of 3%. Taken in the same sequence, the figures for `CC(C)C[C@@H]1NC(=O)[C@@H](NC(=O)[C@H](Cc2ccccc2)NC(=O)CCCN)CCCCNC(=O)C[C@@H](C(N)=O)NC(=O)[C@H](CCCN=C(N)N)NC1=O` (H-[GABA]FKLRD-NH2; lactam 3-6) were 6% and 6%. Consider `CC(C)C[C@@H]1NC(=O)[C@@H](NC(=O)[C@H](Cc2cccc(F)c2)NC(=O)CCN)CCCCNC(=O)C[C@@H](C(N)=O)NC(=O)[C@H](Cc2ccccc2)NC1=O` (H-[βAla][Phe(3-F)]KLFD-NH2; lactam 3-6), for which, in the experiment filed under Homo sapiens [3], the EC50 entry is listed as “Not Active”. Further, the inhibition in experiment [2] was determined as 24%.

Take `CC(C)C[C@@H]1NC(=O)[C@@H](NC(=O)[C@@H](CCc2ccccc2)NC(=O)CN)CCCCNC(=O)C[C@@H](C(N)=O)NC(=O)[C@H](Cc2ccccc2)NC1=O`: the EC50 result in the experiment listed under Homo sapiens [3] was “Not Active”. The same compound gave an inhibition in experiment [2] of 1%. In the experiment listed under Homo sapiens [1], `CC(C)C[C@@H]1NC(=O)[C@@H](NC(=O)[C@@H](CCc2ccccc2)NC(=O)CN)CCCCNC(=O)C[C@@H](C(N)=O)NC(=O)[C@H](CCCN=C(N)N)NC1=O` registered an Aggregation of 5%. For the same compound, the inhibition in experiment [2] is 2%. The corresponding values for `CC(C)C[C@@H]1NC(=O)[C@@H](NC(=O)[C@@H](CCc2ccccc2)NC(=O)CCCN)CCCCNC(=O)C[C@@H](C(N)=O)NC(=O)[C@H](CCCN=C(N)N)NC1=O` are 8% and 2%. Taken in the same sequence, the figures for `CC(C)C[C@@H]1NC(=O)[C@H](CC(C)C)NC(=O)[C@H](Cc2ccccc2)NC(=O)[C@@H](N)CCCCNC(=O)CCCNC(=O)C[C@@H](C(N)=O)NC(=O)[C@H](CCCN=C(N)N)NC1=O` (H-KFLLRD-NH2; linker 1-6 via X1) were 5% and 52%.

In the experiment listed under Homo sapiens [1], `CC(C)C[C@@H]1NC(=O)[C@@H](NC(=O)[C@H](Cc2ccccc2)NC(=O)[C@@H](N)CO)CCCCNC(=O)C[C@@H](C(N)=O)NC(=O)[C@H](CCCN=C(N)N)NC1=O` (H-SFKLRD-NH2; lactam 3-6) gave an Aggregation of 16%. This compound also displayed an inhibition in experiment [2] of 13%. As to `CC(C)C[C@@H]1NC(=O)[C@@H](NC(=O)[C@H](Cc2ccccc2)NC(=O)[C@H](C)N)CCCCNC(=O)C[C@@H](C(N)=O)NC(=O)[C@H](CCCN=C(N)N)NC1=O` (H-AFKLRD-NH2; lactam 3-6), the half-maximal effective concentration (EC50) in the experiment listed under Homo sapiens [4] is 66 µM. The same compound came in with an inhibition in experiment [2] of 2%. In the case of `CC(C)C[C@@H]1NC(=O)[C@@H](NC(=O)[C@H](Cc2cccc(F)c2)NC(=O)[C@@H](N)CO)CCCCNC(=O)C[C@@H](C(N)=O)NC(=O)[C@H](CCCN=C(N)N)NC1=O` (H-S[Phe(3-F)]KLRD-NH2; lactam 3-6), the Aggregation in the experiment filed under Homo sapiens [1] was determined as 12%. In experiment [2], this compound gave an inhibition of 5%. For `CC(C)C[C@H](NC(=O)[C@H](CC(C)C)NC(=O)[C@H](Cc1ccccc1)NC(=O)[C@@H](N)CO)C(=O)N[C@@H](CCCN=C(N)N)C(=O)N[C@@H](CC(N)=O)C(N)=O`, a half-maximal response in the experiment filed under Homo sapiens [4] (EC50) required 0.8 µM.

For `CC(C)C[C@@H]1NC(=O)[C@@H](NC(=O)[C@H](Cc2cccc(F)c2)NC(=O)CN)CCCCNC(=O)C[C@@H](C(N)=O)NC(=O)[C@H](CCCN=C(N)N)NC1=O` (H-G[Phe(3-F)]KLRD-NH2; lactam 3-6), in the experiment filed under Homo sapiens [1], the Aggregation is 6%. In experiment [2], this compound came in with an inhibition of 10%. `CC(C)C[C@@H]1NC(=O)[C@@](C)(NC(=O)[C@@H](Cc2ccccc2)NC(=O)CN)CCCCNC(=O)CCCNC(=O)C[C@@H](C(N)=O)NC(=O)[C@H](CCCN=C(N)N)NC1=O` gave an EC50 in the experiment listed under Homo sapiens [4] of 30 µM. The same compound had an inhibition in experiment [2] of 44%. Consider `CC(C)C[C@@H]1NC(=O)[C@@H](NC(=O)[C@@H](CCc2ccccc2)NC(=O)[C@@H](N)CO)CCCCNC(=O)C[C@@H](C(N)=O)NC(=O)[C@H](Cc2ccccc2)NC1=O`, for which, in the experiment listed under Homo sapiens [3], the EC50 result is recorded as “Not Active”. The same compound yielded an inhibition in experiment [2] of 2%. For `CC(C)C[C@@H]1NC(=O)[C@@H](NC(=O)[C@H](Cc2cccc(F)c2)NC(=O)[C@@H](N)CO)CCCCNC(=O)C[C@@H](C(N)=O)NC(=O)[C@H](Cc2ccccc2)NC1=O` (H-S[Phe(3-F)]KLFD-NH2; lactam 3-6), the EC50 result in the experiment filed under Homo sapiens [3] is recorded as “Not Active”. The same compound gave an inhibition in experiment [2] of 23%.

`CC(C)C[C@@H]1NC(=O)[C@@H](NC(=O)[C@@H](CCc2ccccc2)NC(=O)CCCN)CCCCNC(=O)C[C@@H](C(N)=O)NC(=O)[C@H](Cc2ccccc2)NC1=O`: it took 37 µM to reach a half-maximal effect in the experiment filed under Homo sapiens [4] (EC50). For the same compound, the inhibition in experiment [2] came to 15%. Taken in the same sequence, the figures for `CC(C)C[C@@H]1NC(=O)[C@@H](NC(=O)[C@H](Cc2ccccc2)NC(=O)CN)CCCCNC(=O)C[C@@H](C(N)=O)NC(=O)[C@H](Cc2ccccc2)NC1=O` (H-GFKLFD-NH2; lactam 3-6) were 24 µM and 23%.

In the case of `CC(C)C[C@@H]1NC(=O)[C@H](CC(C)C)NC(=O)[C@H](Cc2ccccc2)NC(=O)[C@@H](N)CCCCNC(=O)C[C@@H](C(N)=O)NC(=O)[C@H](CCCN=C(N)N)NC1=O` (H-KFLLRD-NH2; lactam 1-6), in the experiment listed under Homo sapiens [1], the Aggregation was found to be 6%. Moreover, in experiment [2], the inhibition is 3%. The compound `CC(C)C[C@@H]1NC(=O)[C@@H](NC(=O)[C@@H](CCc2ccccc2)NC(=O)CCN)CCCCNC(=O)C[C@@H](C(N)=O)NC(=O)[C@H](Cc2ccccc2)NC1=O` showed an EC50 in the experiment listed under Homo sapiens [4] of 43 µM. Besides, in experiment [2], the inhibition stood at 16%. Taken in the same sequence, the figures for `CC(C)C[C@@H]1NC(=O)[C@@H](NC(=O)[C@H](Cc2ccc(F)cc2)NC(=O)CN)CCCCNC(=O)C[C@@H](C(N)=O)NC(=O)[C@H](CCCN=C(N)N)NC1=O` (H-G[Phe(4-F)]KLRD-NH2; lactam 3-6) were 60 µM and 14%. With `CC(C)C[C@@H]1NC(=O)[C@@H](NC(=O)[C@H](Cc2ccccc2)NC(=O)[C@@H](N)CO)CCCCNC(=O)C[C@@H](C(N)=O)NC(=O)[C@H](Cc2ccccc2)NC1=O` (H-SFKLFD-NH2; lactam 3-6), the EC50 entry in the experiment filed under Homo sapiens [3] was “Not Active”. Besides, in experiment [2], the inhibition stood at 12%. In the experiment listed under Homo sapiens [4], `CC(C)C[C@@H]1NC(=O)[C@@H](NC(=O)[C@H](Cc2cccc(F)c2)NC(=O)CN)CCCCNC(=O)C[C@@H](C(N)=O)NC(=O)[C@H](Cc2ccccc2)NC1=O` (H-G[Phe(3-F)]KLFD-NH2; lactam 3-6) gave an EC50 of 63 µM. For the same compound, the inhibition in experiment [2] was 11%. Turning to `CC(C)C[C@@H]1NC(=O)[C@@H](NC(=O)[C@H](Cc2cccc(F)c2)NC(=O)CCCN)CCCCNC(=O)C[C@@H](C(N)=O)NC(=O)[C@H](Cc2ccccc2)NC1=O` (H-[GABA][Phe(3-F)]KLFD-NH2; lactam 3-6), in the experiment filed under Homo sapiens [3], the EC50 result is “Not Active”. This compound also returned an inhibition in experiment [2] of 27%.
